Measured values as given in patent publication US11236088B2, “Heterocyclic compounds and their application in medicine” (KIND PHARMACEUTICAL, priority 2017, dated 2022).

The compounds below were run on MCF-7 cells (assay: Inhibitory effect on the growth of MCF-7 cells (CellTiter-Glo, 10 days)). Settings: Homo sapiens, MCF7, 240 h, 10 days incubation, CellTiter-Glo chemiluminescence.
Format: cell-based
Experimental: Assay 2: Inhibitory effect of compounds of the present invention on the growth of MCF-7 cells by a cell drug inhibition experiment
1. Experimental Materials
1) Reagents: DMEM high glucose medium (Lonza #12-604F), FBS (BI #04-00F1ACS), antibiotics (Thermofisher #15070063), bovine insulin (Western reagent #11070-73-8), trypsin (Thermofisher #25200-056), CellTiter-Glo reagent (Promega #G7571)
2) Instruments: American MD-M5 microplate reader 5;
2. Experimental Procedures:
1) 100 μl of MCF-7 cells was added to a medium in a white opaque 96-well plate at a density of 5000 cells/ml in which the medium is DMEM high-glucose medium supplemented with 10% FBS. The cells were cultured in a 5% CO2 cell incubator at 37° C. for 24 hours.
2) Different concentrations of corresponding compounds were added to the 96-well plate for incubating MCF-7 cells. The cells were incubated for 10 days in a 5% CO2 cell incubator.
3) To each well of MCF-7 cells, 100 μl of CellTiter-Glo reagent was added and then set aside at room temperature for 10 minutes. The chemiluminescence signal was read using an MD-M5 microplate reader, and the data was processed using GraphPad Prism to calculate IC50 value.

Structure (SMILES)	IC50 [nM]
CC(C)C[C@H]1[C@H](c2c(F)cc(SC3CN(CCCF)C3)cc2F)c2ccc3[nH]ncc3c2CN1C [Example 10, (6S, 7S)-6-(2,6-difluoro-4-((1-(3-fluoropropyl)azetidin-3-yl)thio)phenyl)-7-isobutyl-8-methyl-6,7,8,9-tetrahydro-3H-pyrazolo [3,4-h]isoquinoline]	≤ 1
CCCC(=O)N1CC(Oc2cc(F)c([C@@H]3c4ccc5[nH]ncc5c4CN(C)[C@H]3CC(C)C)c(F)c2)C1 [Example 33, 1-(3-(3,5-difluoro-4-((6S, 7S)-7-isobutyl-8-methyl-6,7,8,9-tetrahydro-3H-pyrazolo [3,4-h]isoquinolin-6-yl)phenoxy)azetidin-1-yl) butan-1-one]	10 to 1000
CC(C)C[C@H]1[C@H](c2ccc(NC3CN(CCCF)C3)cc2)c2ccc3[nH]ncc3c2CN1C [Example 1, 1-(3-fluoropropyl)-N-(4-((6R, 7S)-7-isobutyl-8-methyl-6,7,8,9-tetrahydro-3H-pyrazolo [3,4-h]isoquinolin-6-yl)phenyl)azetidin-3-amine]	1 to 10
CC(C)C[C@H]1[C@H](c2c(F)cc(OC3CN(C=O)C3)cc2F)c2ccc3[nH]ncc3c2CN1C [Example 30, 3-(3,5-difluoro-4-((6S, 7S)-7-isobutyl-8-methyl-6,7,8,9-tetrahydro-3H-pyrazolo [3,4-h]isoquinolin-6-yl)phenoxy) azetidin-1-aldehyde]	≤ 1
CCCCN1CC(Sc2cc(F)c([C@@H]3c4ccc5[nH]ncc5c4CN(C)[C@H]3CC3CC3)c(F)c2)C1 [Example 27, (6S, 7S)-6-(4-((1-butylazetidin-3-yl)thio)-2,6-difluorophenyl)-7-cyclopropylmethyl-8-methyl-6,7,8,9-tetrahydro-3H-pyrazolo [3,4-h]isoquinoline]	> 1000
CC(C)C[C@H]1[C@H](c2c(F)cc(NC3CN(CC(C)C)C3)cc2F)c2ccc3[nH]ncc3c2CN1C [Example 8, N-(3,5-difluoro-4-((6S, 7S)-7-isobutyl-8-methyl-6,7,8,9-tetrahydro-3H-pyrazolo [3,4-h]isoquinolin-6-yl)phenyl)-1-isobutylazetidin-3-amine]	> 1000
CCCCCN1CC(Oc2cc(F)c([C@@H]3c4ccc5[nH]ncc5c4CN(C)[C@H]3CC3CC3)c(F)c2)C1 [Example 24, (6S, 7S)-7-cyclopropylmethyl-6-(2,6-difluoro-4-((1-pentylazetidin-3-yl)oxy)phenyl)-8-methyl-6,7,8,9-tetrahydro-3H-pyrazolo [3,4-h]isoquinoline]	> 1000
